Results on 24 molecules are retold here after US20250320193A1, “OXOISOINDOLINYL SUBSTITUTED PIPERIDINEDIONE DERIVATIVE AND USE THEREOF” (GLUETACS THERAPEUTICS (SHANGHAI) CO., LTD., priority 2022, published 2025).

Chain of human Cereblon WT GST-tagged protein (Q96SW2 whole entry): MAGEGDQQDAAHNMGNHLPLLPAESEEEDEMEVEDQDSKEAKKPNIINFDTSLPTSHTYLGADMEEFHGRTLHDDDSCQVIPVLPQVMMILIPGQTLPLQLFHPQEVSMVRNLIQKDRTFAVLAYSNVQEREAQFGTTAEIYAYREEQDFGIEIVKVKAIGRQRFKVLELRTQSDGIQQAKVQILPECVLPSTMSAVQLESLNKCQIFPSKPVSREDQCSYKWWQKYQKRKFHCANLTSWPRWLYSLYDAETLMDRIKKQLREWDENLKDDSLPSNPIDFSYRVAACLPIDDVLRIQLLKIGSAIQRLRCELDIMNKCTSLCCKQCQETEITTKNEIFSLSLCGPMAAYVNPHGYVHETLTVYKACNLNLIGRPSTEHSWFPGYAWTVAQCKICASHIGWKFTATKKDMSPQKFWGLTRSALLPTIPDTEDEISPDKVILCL

The target in this test is human Cereblon WT GST-tagged protein (Homo sapiens (Human), UniProt Q96SW2). Kind of test: CRBN-binding affinity, HTRF (CEREBLON BINDING kit, CISBIO). As to conditions: HTRF inhibitory activity. As for the experimental part:
I. Determination of CRBN-binding affinity of compounds of the present disclosure:
The CEREBLON BINDING kits (specification: 10,000 tests; product number: Catalog #64BDCRBNPEH; CISBIO company) was used to determine the CRBN binding ability of the compounds to be tested through a HTRF method (homogeneous time-resolved fluorescence). The specific methods are as follows: • 1. […] Then, 2.5 μL of human Cereblon WT GST-tagged protein solution was added to each well. Finally, 5 μL of the thoroughly mixed Thalidomide-Red reagent and GST Eu antibody working solution were added to each of the aforementioned wells. […] The blank control wells were sequentially added with 2.5 μL of diluent #9 (1X) solution, 2.5 μL of PROTAC binding buffer, and 5 μL of thoroughly mixed Thalidomide-Red reagent and GST Eu antibody working solution. • 4.
The corresponding CRBN binding inhibition rate was calculated using the following method: […]
OD 620 nmcompound is the absorbance value of each well of the compounds to be tested of the present disclosure at an emission wavelength of 620 nm. […] OD 620 nmcontrol is the absorbance value of the blank control well at an emission wavelength of 620 nm. […] OD 620 nmStd0 is the absorbance value of the solvent control well at an emission wavelength of 620 nm.
For orientation: IC50 means the midpoint of a concentration-inhibition curve. Read a low IC50 as greater potency. `O=C1CCC(N2Cc3cc(CN4CCN(C(c5ccc(Cl)cc5)c5ccc(Cl)cc5)CC4)cc(F)c3C2=O)C(=O)N1` (stereo not drawn) [GT-03568, 3-(5-((4-(bis(4-chlorophenyl)methyl)piperazin-1-yl)methyl)-7-fluoro-1-oxoisoindolin-2-yl)piperidine-2,6-dione] yielded a half-maximal inhibitory concentration (IC50) of 1000 to 1900 nM.
For `O=C1CCC(N2Cc3c(ccc(CN4C[C@H]5C[C@@H]4CN5C(c4ccccc4)c4ccccc4)c3F)C2=O)C(=O)N1` (stereo partly drawn) [GT-03573, 3-(5-(((1R,4R)-5-benzhydryl-2,5-diazabicyclo[2.2.1]heptan-2-yl)methyl)-4-fluoro-1-oxoisoindolin-2-yl)piperidine-2,6-dione], the IC50 is less than 500 nM.
In the case of `O=C1CCC(N2Cc3cc(CN4C[C@H]5C[C@@H]4CN5C(c4ccccc4)c4ccccc4)cc(F)c3C2=O)C(=O)N1` (stereo partly drawn) [GT-03576, 3-(5-(((1R,4R)-5-benzhydryl-2,5-diazabicyclo[2.2.1]heptan-2-yl)methyl)-7-fluoro-1-oxoisoindolin-2-yl)piperidine-2,6-dione], the IC50 was less than 500 nM.
Regarding `C[C@@H]1CN(C(c2ccccc2)c2ccccc2)CCN1Cc1cc(F)c2c(c1)CN(C1CCC(=O)NC1=O)C2=O` (stereo partly drawn) [GT-03577, 3-(5-(((R)-4-benzhydryl-2-methylpiperazin-1-yl)methyl)-7-fluoro-1-oxoisoindolin-2-yl)piperidine-2,6-dione], the IC50 was less than 500 nM.
`O=C1CCC(N2Cc3c(CN4CCN(C(c5ccccc5)c5ccccc5)CC4)cccc3C2=O)C(=O)N1` (stereo not drawn) [GT-03646, 3-(4-((4-benzhydrylpiperazin-1-yl)methyl)-1-oxoisoindolin-2-yl)piperidine-2,6-dione] displayed an IC50 of 500 to 1000 nM.
The value for `O=C1CCC(N2Cc3cc(CN4CCN(C(c5ccccc5)c5ccccn5)CC4)cc(F)c3C2=O)C(=O)N1` (stereo not drawn) [GT-03834, 3-(7-fluoro-1-oxo-5-((4-(phenyl(pyridin-2-yl)methyl)piperazin-1-yl)methyl)isoindolin-2-yl)piperidine-2,6-dione] was less than 500 nM; that for `CC1CN(C(c2ccccc2)c2ccccc2)CC(C)N1Cc1cc(F)c2c(c1)CN(C1CCC(=O)NC1=O)C2=O` (stereo not drawn) [GT-03874, 3-(5-((4-benzhydryl-2,6-dimethylpiperazin-1-yl)methyl)-7-fluoro-1-oxoisoindolin-2-yl)piperidine-2,6-dione] was less than 500 nM; that for `O=C1CCC(N2Cc3c(CN4CCN(C(c5cccc(F)c5)c5cccc(F)c5)CC4)cccc3C2=O)C(=O)N1` (stereo not drawn) [GT-03875, 3-(4-((4-(bis(3-fluorophenyl)methyl)piperazin-1-yl)methyl)-1-oxoisoindolin-2-yl)piperidine-2,6-dione] was 500 to 1000 nM.
`CC1(C)CN(Cc2ccc3c(c2)CN(C2CCC(=O)NC2=O)C3=O)CCN1C(c1ccccc1)c1ccccc1` (stereo not drawn) [GT-04165, 3-(5-((4-benzhydryl-3,3-dimethylpiperazin-1-yl)methyl)-1-oxoisoindolin-2-yl)piperidine-2,6-dione] returned an IC50 of less than 500 nM.
With `CC1(C)CN(Cc2ccc3c(c2F)CN(C2CCC(=O)NC2=O)C3=O)CCN1C(c1ccccc1)c1ccccc1` (stereo not drawn) [GT-04166, 3-(5-((4-benzhydryl-3,3-dimethylpiperazin-1-yl)methyl)-4-fluoro-1-oxoisoindolin-2-yl)piperidine-2,6-dione], the IC50 lay in the range of 500 to 1000 nM.
To `O=C1CCC(N2Cc3cc(CN4C(=O)c5cccc6cccc(c56)C4=O)ccc3C2=O)C(=O)N1` (stereo not drawn) [GT-04244, 2-((2-(2,6-dioxopiperidin-3-yl)-1-oxoisoindolin-5-yl)methyl)-1H-benzo[de]isoquinoline-1,3(2H)-dione] belongs less than 500 nM; to `O=C1CCC(N2Cc3ccc(CN4CCN(C(c5ccccc5)c5ccccc5)CC4)cc3C2=O)C(=O)N1` (stereo not drawn) [GT-05686, 3-(6-((4-benzhydrylpiperazin-1-yl)methyl)-1-oxoisoindolin-2-yl)piperidine-2,6-dione], 1000 to 1900 nM; to `O=C1CCC(N2Cc3cc(CN4CCN(C(c5ccccn5)c5ccccn5)CC4)cc(F)c3C2=O)C(=O)N1` (stereo not drawn) [GT-05714, 3-(5-((4-(di(pyridin-2-yl)methyl)piperazin-1-yl)methyl)-7-fluoro-1-oxoisoindolin-2-yl)piperidine-2,6-dione], 1000 to 1900 nM.
The molecule `O=C1CCC(N2Cc3c(CN4CCN(C(c5ccccn5)c5ccccn5)CC4)cccc3C2=O)C(=O)N1` (stereo not drawn) [GT-05715, 3-(4-((4-(di(pyridin-2-yl)methyl)piperazin-1-yl)methyl)-1-oxoisoindolin-2-yl)piperidine-2,6-dione] showed an IC50 of 1000 to 1900 nM.
Consider `O=C1CCC(N2Cc3c(ccc(CN4CCN(C(c5cccnc5)c5cccnc5)CC4)c3F)C2=O)C(=O)N1` (stereo not drawn) [GT-05716, 3-(5-((4-(di(pyridin-3-yl)methyl)piperazin-1-yl)methyl)-4-fluoro-1-oxoisoindolin-2-yl)piperidine-2,6-dione], for which the IC50 was less than 500 nM.
Molecule `O=C1CCC(N2Cc3ccc(CN4CCN(C(c5ccc(F)cc5)c5ccc(F)cc5)CC4)cc3C2=O)C(=O)N1` (stereo not drawn) [GT-05719, 3-(6-((4-(bis(4-fluorophenyl)methyl)piperazin-1-yl)methyl)-1-oxoisoindolin-2-yl)piperidine-2,6-dione] came in with an IC50 of 500 to 1000 nM.
In turn, `O=C1CCC(N2Cc3cccc(CN4CCN(C(c5ccc(F)cc5)c5ccc(F)cc5)CC4)c3C2=O)C(=O)N1` (stereo not drawn) [GT-05720, 3-(7-((4-(bis(4-fluorophenyl)methyl)piperazin-1-yl)methyl)-1-oxoisoindolin-2-yl)piperidine-2,6-dione] yielded an IC50 of 1000 to 1900 nM.
In turn, `O=C1CCC(N2Cc3c(C(=O)N4CCN(C(c5ccccc5)c5ccccc5)CC4)cccc3C2=O)C(=O)N1` (stereo not drawn) [GT-05721, 3-(4-(4-benzhydrylpiperazine-1-carbonyl)-1-oxoisoindolin-2-yl)piperidine-2,6-dione] yielded an IC50 of 500 to 1000 nM.
To `O=C1CCC(N2C(=O)c3ccc(CN4C5CC4CN(C(c4ccccc4)c4ccccc4)C5)cc3C2=O)C(=O)N1` (stereo not drawn) [GT-05728, 5-((3-benzhydryl-3,6-diazabicyclo[3.1.1]heptan-6-yl)methyl)-2-(2,6-dioxopiperidin-3-yl) isoindoline-1,3-dione] belongs 1000 to 1900 nM; to `O=C1CCC(N2Cc3ccc(CN4CCN(C(c5ccc(Cl)cc5)c5ccc(Cl)cc5)CC4)cc3C2=O)C(=O)N1` (stereo not drawn) [GT-05735, 3-(6-((4-(bis(4-chlorophenyl)methyl)piperazin-1-yl)methyl)-1-oxoisoindolin-2-yl)piperidine-2,6-dione], 1000 to 1900 nM; to `O=C1CCC(N2Cc3cccc(CN4CCN(C(c5ccc(Cl)cc5)c5ccc(Cl)cc5)CC4)c3C2=O)C(=O)N1` (stereo not drawn) [GT-05736, 3-(7-((4-(bis(4-chlorophenyl)methyl)piperazin-1-yl)methyl)-1-oxoisoindolin-2-yl)piperidine-2,6-dione], 1000 to 1900 nM.
The value for `O=C1CCC(N2Cc3cc(NN4CCN(C(c5ccccc5)c5ccccc5)CC4)ccc3C2=O)C(=O)N1` (stereo not drawn) [GT-05743, 3-(5-((4-benzhydrylpiperazin-1-yl)amino)-1-oxoisoindolin-2-yl)piperidine-2,6-dione] was 1000 to 1900 nM; that for `O=C1CCC(N2Cc3cc(C=C4CN(C(c5ccccc5)c5ccccc5)C4)ccc3C2=O)C(=O)N1` (stereo not drawn) [GT-05745, 3-(5-((1-benzhydrylazetidin-3-ylidene)methyl)-1-oxoisoindolin-2-yl)piperidine-2,6-dione] was less than 500 nM; that for `O=C1CCC(N2Cc3cc(NC4CCN(C(c5ccccc5)c5ccccc5)CC4)ccc3C2=O)C(=O)N1` (stereo not drawn) [GT-05864, 3-(5-((1-benzhydrylpiperidin-4-yl)amino)-1-oxoisoindolin-2-yl)piperidine-2,6-dione] was less than 500 nM.
